Source: patent publication US8333970B2, “Methods of monitoring the efficacy of anti-CD40 antibodies in treating a subject having an inflammatory or autoimmune disease” (Novartis AG, priority 2005, dated 2012)
Entries after “also recorded” stand apart in the source; their conditions may differ.

Assays:
[1] = tested on: cancer cells from NHL and CLL patients; assay: In vitro CD40 ligand-mediated proliferation of patient cancer cells; format: cell-based, human
Description: (§1) 4, 2003, Nov. 26, 2003, and Apr. 27, 2004, and assigned U.S. Patent Application Nos. 60/517,337 , 60/525,579, and 60/565,710, respectively, and International Patent Application No. PCT/US2004/037152, also entitled “Antagonist Anti-CD40 Monoclonal Antibodies and Methods for Their Use,” filed Nov. 4, 2004; the contents of each of which are herein incorporated by reference in their entirety.

[2] = tested on: B cells from normal human subjects; assay: In vitro proliferation of normal human B cells / lymphocytes; format: cell-based
Description: (§2) 2, 2000, and PCT International Application No. PCT/US01/30857, also titled “Human Anti-CD40 Antibodies,” filed Oct. 2, 2001, both of which are herein incorporated by reference in their entirety.
as §1

[3] = tested on: primary cancer cells from NHL patients; assay: ADCC on primary cancer cells; format: cell-based, human; settings: in vitro
Description: as §1

normal B cells = assay: CD40L-induced cytokine secretion, Meso Scale Discovery multi-array; format: cell-based, human; settings: 24 hours; for % inhibition of CD40L-induced MCP-1 secretion / % inhibition of CD40L-induced MIP-1β secretion / % inhibition of CD40L-induced hIL-6 secretion / % inhibition of CD40L-induced hIL-8 secretion / % inhibition of CD40L-induced hIL-10 secretion / % inhibition of CD40L-induced hTNF-α secretion: normal B cells
Description: (§3) Cells (1×10^5 cells per well) were cultured in a 96-well plate in the presence or absence of CD40L ([…], formaldehyde fixed CHO cells, 2×10^5 per well). […] Production of hIL-6, hIL-8, hIL-10, hTNF-α; hGM-CSF, hIL-1b, hIL-12p70, MCP-1, and MIP-1β beta was measured by Meso Scale Discovery® multi-array system (Meso Scale Discovery, Gaithersburg, Md.).

monocytes [4] = assay: as above; format: cell-based, human; settings: 24 hours
Description: as §3

[5] = tested on: pre-clinical tumor models; assay: Pre-clinical tumor models; format: in vivo
monocytes [6] = assay: CD40L-induced production of VEGF; format: cell-based
Description: In another experiment, CD40L-induced production of VEGF in monocytes is examined in a manner similar to that described above.

normal human B cells [7] = assay: Western blot of survival and signaling markers, rhsCD40L-stimulated B cells (Example 5, FIG. 1); format: cell-based
Description: Cells were lysed and whole cell lysates resolved by SDS-PAGE and Western blotting using antibodies specific to human cPARP, Mcl-1, Bcl-xl, p-Akt, and p-p38 MAPK. All membranes were stripped and re-probed for either β-actin or total Akt or p38 MAPK protein, as appropriate.

normal human B cells [8] = assay: Western blot of XIAP and cleaved PARP without sCD40L stimulation; format: cell-based; settings: 10 μg/ml antibody, no sCD40L, 0 to 16 hours
Description: Cells were collected at 0, 4, 14, and 16 hours. XIAP, cleaved PARP, and β-actin controls were detected in cell lysates by Western blot.

[9] = molecular target: T1, CD40-TRAF2/3 signaling complex (Homo sapiens, UniProt P25942); assay: CD40 immunoprecipitation, TRAF2/TRAF3 Western blot; format: cell-based; settings: 1 μg/ml sCD40L, 20 minutes
T1 construct: normal human B cells from healthy donors; endogenous in cells; host or cells: normal human B cells from healthy donors
Description: In these experiments, 4.0×10^6 normal human B cells from healthy donors (percent purity between 85-95%) were serum starved for four hours in 1% FBS-containing media and stimulated with 1 μg/ml sCD40L (Alexis Corporation, Bingham, Nottinghamshire, UK) for 20 minutes. Cells were collected at 0 and 20 minutes. CD40 was immunoprecipitated using polyclonal anti-CD40 (Santa Cruz Biotechnology, CA), and was probed in a Western blot with anti-TRAF2 mAb (Santa Cruz Biotechnology, CA), anti-TRAF3 mAb (Santa Cruz Biotechnology, CA), and anti-CD40 mAb (Santa Cruz Biotechnology, CA).

[10] = tested on: CD40-expressing target cells; assay: Antibody dependent cellular cytotoxicity (ADCC); format: cell-based; settings: native antibodies
Description: as §2
Clones from 7 other hybridomas were identified as having antagonistic activity. Based on their relative antagonistic potency and ADCC activities, two hybridoma clones were selected for further evaluation (Table 1 below). They are named 131.2F8.5.9 (5.9) and 153.8E2.D10.D6.12.12 (12.12).

normal human B cells [11] = assay: Western blot of apoptosis and survival proteins in sCD40L-stimulated B cells; format: cell-based
Description: In these experiments, 0.6×10^6 normal human B cells from healthy donors (percent purity between 85-95%) were stimulated with 1 μg/ml sCD40L (Alexis Corporation, Bingham, Nottinghamshire, UK). […] Cells were collected at 0, 20 minutes, 2 hours, 6 hours, 18 hours, and 26 hours. Cleaved Caspase-9, cleaved Caspase-3, cleaved PARP, and β-actin controls were detected in cell lysates by Western blot.
In these experiments, 0.6×10^6 normal human B cells from healthy donors (percent purity between 85-95%) were stimulated with 1 μg/ml sCD40L (Alexis Corporation, Bingham, Nottinghamshire, UK). […] Cells were collected at 0, 20 minutes, 2 hours, 6 hours, 18 hours, and 26 hours. Mcl-1, XIAP, CD40, and β-actin controls were detected in cell lysates by Western blot.
In these experiments, 0.6×10^6 normal human B cells from healthy donors percent purity between 85-95%) were stimulated with 1 μg/ml sCD40L (Alexis Corporation, Bingham, Nottinghamshire, UK). […] Cells were collected at 24 hours. Cleaved PARP, and β-actin controls were detected in cell lysates by Western blot.
In these experiments, 0.6×10^6 normal human B cells from healthy donors (percent purity between 85-95%) were stimulated with 1 μg/ml sCD40L (Alexis Corporation, Bingham, Nottinghamshire, UK). […] Cells were collected at 22 hours. Mcl-1, XIAP, cleaved PARP, and β-actin controls were detected in cell lysates by Western blot.

[12] = 2 μg/ml rhsCD40L, 10 μg/ml antibody, 24 hr
[13] = 1 μg/ml sCD40L, 10 μg/ml antibody, 0 to 26 hours
[14] = 1 μg/ml sCD40L, 0.5, 2 and 10 μg/ml antibody, 22 hours

T1 sequence (P25942 21-277, one chain of several): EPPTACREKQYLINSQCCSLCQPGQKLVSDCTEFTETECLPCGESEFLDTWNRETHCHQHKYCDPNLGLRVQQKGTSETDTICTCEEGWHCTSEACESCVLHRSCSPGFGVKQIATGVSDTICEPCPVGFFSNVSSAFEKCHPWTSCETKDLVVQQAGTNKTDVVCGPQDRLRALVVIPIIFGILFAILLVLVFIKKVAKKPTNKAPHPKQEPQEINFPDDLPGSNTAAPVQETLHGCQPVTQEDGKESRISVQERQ

CHIR-12.12: fully human anti-CD40 monoclonal antibody of the IgG1 isotype, hybridoma 153.8E2.D10.D6.12.12, ATCC PTA-5543, SEQ ID NO:2 and 4
CD40 ligand-mediated proliferation of cancer cells [1]: inhibiting in vitro CD40 ligand-mediated proliferation of cancer cells from NHL and CLL patients | CD40L-induced lymphocyte proliferation ([2]; human peripheral blood lymphocytes): inhibits CD40L-induced lymphocyte proliferation | effect on CD40 ligand-mediated proliferation of normal B cells ([2]; in vitro): act as antagonist anti-CD40 antibodies; also recorded: inhibit in vitro CD40 ligand-mediated proliferation of normal B cells | induction of proliferation of human lymphocytes (agonist activity) ([2]; lymphocytes from normal subjects, antibody alone): do not induce strong proliferation; also recorded: does not induce the proliferation of human peripheral blood lymphocytes | killing of primary cancer cells by ADCC [3]: kill primary cancer cells from NHL patients by ADCC | cytokine production with antibody alone (agonistic activity) (normal B cells; absence of CD40L, 10 μg/ml): did not produce any of the cytokines above background levels | CD40L-induced production of all cytokines (normal B cells; normal B cells (n=3), 10 μg/ml): inhibited production of all cytokines | % inhibition of CD40L-induced MCP-1 secretion (normal B cells; Donor 1, 10 μg/ml): 55.3% | % inhibition of CD40L-induced MIP-1β secretion (normal B cells; Donor 1, 10 μg/ml): 54.4% | % inhibition of CD40L-induced hIL-6 secretion (normal B cells; Donor 1, 10 μg/ml): 92.2% | % inhibition of CD40L-induced hIL-8 secretion (normal B cells; Donor 1, 10 μg/ml): 98.2% | % inhibition of CD40L-induced hIL-10 secretion (normal B cells; Donor 1, 10 μg/ml): 90.5% | % inhibition of CD40L-induced hTNF-α secretion (normal B cells; Donor 1, 10 μg/ml): 92.8% | % inhibition of CD40L-induced MIP-1β secretion (normal B cells; Donor 2, 10 μg/ml): 92% | % inhibition of CD40L-induced hIL-6 secretion (normal B cells; Donor 2, 10 μg/ml): 99.9% | % inhibition of CD40L-induced hIL-8 secretion (normal B cells; Donor 2, 10 μg/ml): 84.7% | % inhibition of CD40L-induced hTNF-α secretion (normal B cells; Donor 2, 10 μg/ml): 97.4% | % inhibition of CD40L-induced MCP-1 secretion (normal B cells; Donor 3, 10 μg/ml): 25.7% | % inhibition of CD40L-induced MIP-1β secretion (normal B cells; Donor 3, 10 μg/ml): 92.5% | % inhibition of CD40L-induced hIL-6 secretion (normal B cells; Donor 3, 10 μg/ml): 99.3% | % inhibition of CD40L-induced hIL-8 secretion (normal B cells; Donor 3, 10 μg/ml): 99.5% | % inhibition of CD40L-induced hIL-10 secretion (normal B cells; Donor 3, 10 μg/ml): 94.4% | % inhibition of CD40L-induced hTNF-α secretion (normal B cells; Donor 3, 10 μg/ml): 98.5% | CD40L-induced production of hIL-10, hTNF-α, hIL-8, hIL-6, MCP-1 and MIP-1β (monocytes [4]; monocytes (n=1), 10 μg/ml): inhibited CD40L-induced monocyte production | % inhibition of CD40L-induced MCP-1 secretion (monocytes [4]; monocytes, Donor 1, 10 μg/ml): 92.6% | % inhibition of CD40L-induced MIP-1β secretion (monocytes [4]; monocytes, Donor 1, 10 μg/ml): 32.4% | % inhibition of CD40L-induced hIL-6 secretion (monocytes [4]; monocytes, Donor 1, 10 μg/ml): 64.9% | % inhibition of CD40L-induced hIL-8 secretion (monocytes [4]; monocytes, Donor 1, 10 μg/ml): 43.7% | % inhibition of CD40L-induced hIL-10 secretion (monocytes [4]; monocytes, Donor 1, 10 μg/ml): 58.5% | % inhibition of CD40L-induced hTNF-α secretion (monocytes [4]; monocytes, Donor 1, 10 μg/ml): 60.1% | anti-tumor potency compared with rituximab [5]: more potent anti-tumor antibody than is rituximab | CD40L-induced production of VEGF (monocytes [6]): inhibit CD40L-induced production of VEGF | expression of anti-apoptotic proteins Mcl-1 and Bcl-xl (normal human B cells [7]; [12]): inhibited the expression of the anti-apoptotic proteins Mcl-1 and Bcl-xl | phosphorylation of Akt and p38 MAPK (normal human B cells [7]; [12]): inhibiting the phosphorylation of the downstream signaling proteins | CD40L-induced signaling and survival of normal human B cells (normal human B cells [7]; FIG. 1): blocked | apoptosis (cleaved PARP, XIAP) without sCD40L stimulation (normal human B cells [8]): did not trigger these apoptotic effects; also recorded: does not trigger apoptosis in normal human B cells without CD40L stimulation | CD40 expression [9]: no changes in CD40 expression | formation of the CD40-TRAF2/3 signaling complex [9]: abrogated formation of the CD40-TRAF2/3 signaling complex | ADCC activity, killing of CD40-expressing target cells [10]: have ADCC activity; also recorded: able to kill CD40-expressing target cells | cleaved Caspase-9, cleaved Caspase-3, cleaved PARP (normal human B cells [11]; [13]): increased cleavage of Caspase-9, Caspase-3, and PARP; also recorded: resulted in an increase of these cleavage products | expression of Mcl-1 and XIAP over time (normal human B cells [11]; [13]): reduction of XIAP and Mcl-1; also recorded: resulted in a decrease in expression of these proteins | PARP cleavage (normal human B cells [11]; 1 μg/ml sCD40L, 0.01-1.0 μg/ml antibody, 24 hours): increase of PARP cleavage in sCD40L stimulated cells in a dose-dependent manner | Mcl-1 and XIAP expression (normal human B cells [11]; [14]): reduced Mcl-1 and XIAP expression | cleaved PARP expression (normal human B cells [11]; [14]): increased cleaved PARP expression
